Values of other authors in patent US20230314440A1, “METHOD OF TREATING CANCER” (priority 2020, published 2023).

Tested on: metastatic renal cell carcinoma (RCC)
Conditions: patients with metastatic RCC; ESMO 2018, Presentation No. 882P

COc1cc2nccc(Oc3ccc(NC(=O)C4(C(=O)Nc5ccc(F)cc5)CC4)cc3)c2cc1OC [cabozantinib, N-(4-{[6,7-bis(methyloxy)quinolin-4-yl]oxy}phenyl)-N′-(4-fluorophenyl)cyclopropane-1,1-dicarboxamide]
effect on systemic tumor immunity: has an impact on systemic tumor immunity
